Structures are written as SMILES.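 Following 48 hours of exposure in 96-well plates, responses at five concentrations were used to interpolate endpoints linearly. TGI: total growth inhibition.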

Assay in all cases: NCI tumour cell line growth inhibition, 48 h
Assay [1] relates to SK-OV-3 ovarian.
Assay [2] deals with TK-10 renal.
For assay [3], the system named is MDA-MB-435.
In assay [4] the test system is SF-539 CNS.
Assay [5] deals with NCI-H460 lung.
Assay [6] deals with COLO 205 colon.
Assay [7] has as its system SN12C renal.
The test system of assay [8] is SNB-75 CNS.
Assay [9] has as its system OVCAR-8 ovarian.
In assay [10] the test system is ACHN renal.

On to `CC(C)(C)OC(=O)N1CCc2c(n(C/C=C/c3ccccc3)[nH]c2=O)C1`, for which the TGI in assay [1], in [2], in [3], in assay [4], in assay [5] and in assay [6] was above 100 µM throughout. In addition, the TGI in assay [7], in assay [8], in assay [9] and in assay [10] was above 100 µM in each case.

`COC(=O)c1ccc(/C=C2\CCc3ccccc3C2=O)cc1`: the TGI in assay [1], in assay [2], in [3], in [4], in [5] and in assay [6] was above 100 µM each time. For the same compound, the TGI in [7], in [8], in [9] and in assay [10] was above 100 µM throughout.

As to `O=S(=O)(O)C1CCC(O)C2[N-]CCCC21.O=S(=O)(O)C1CCC(O)C2[N-]CCCC21.[Zn+2]` (stereo not drawn), the TGI in assay [1], in [2], in [3], in assay [4], in assay [5] and in [6] was above 100 µM each time. Besides, the TGI in [7], in assay [8], in assay [9] and in [10] was above 100 µM in each case.

Consider `CC/C(Cl)=N\OC(=O)Nc1ccc(F)cc1F`, for which the TGI in assay [1] came to 37.4 µM; in [2], 24.3 µM; in assay [3], 34.2 µM; in assay [4] it was 23.5 µM; in assay [5], 85.8 µM; in assay [6], 3.6 µM. Further, the TGI amounted to 11.5 µM in assay [7], 47.1 µM in assay [8], 37.3 µM in [9] and 3.78 µM in assay [10].

Consider `COc1ccc(C=Nc2ccc(-c3nc4ccccc4[nH]3)cc2)cc1OC`, for which the TGI in [1], in assay [2], in assay [3], in assay [4], in assay [5] and in assay [6] was above 100 µM throughout. Moreover, the TGI in assay [7] was above 100 µM; in assay [8], 52.3 µM; in [9], above 100 µM; in assay [10], above 100 µM.

On to `O=P(O)(O)CN1CCNCCN(CP(=O)(O)O)CCNCC1`, for which the TGI was above 100 µM in [1]; above 100 µM in assay [2]; above 100 µM in assay [3]; above 100 µM in assay [4]; 13.1 µM in assay [5]; above 100 µM in assay [6]. Besides, the TGI in assay [7] was above 100 µM; in assay [8], above 100 µM; in assay [9], above 83.6 µM; in assay [10], above 100 µM.

Turning to `CC12CC(C/C1=N/O)C(C)(C)C2` (stereo not drawn), the TGI in [1], in [2], in assay [3], in [4], in assay [5] and in assay [6] was above 100 µM throughout. Also, the TGI in assay [7], in assay [8], in [9] and in assay [10] was above 100 µM in each case.

In the case of `[N-]=[N+]=C(C(=O)C(=[N+]=[N-])C(=O)c1ccccc1)C(=O)c1ccccc1`, the TGI in assay [2], in [3], in assay [4], in assay [5], in assay [6] and in [7] was above 100 µM each time. For the same compound, the TGI in [8], in assay [9] and in assay [10] was above 100 µM throughout.

Regarding `COC(=O)C(C(=O)C(=O)NC1Nc2ccc(C)cc2S1)c1nc2ccc(Cl)cc2[nH]c1=O` (stereo not drawn), the TGI in assay [1], in assay [2], in assay [3], in assay [4], in assay [5] and in assay [7] was above 100 µM in each case. Further, the TGI in assay [8], in assay [9] and in assay [10] was above 100 µM in each case.

For the compound `Cc1ccc(S(=O)(=O)N/N=C2\C3CC4CC(C3)C2C4)cc1` (stereo not drawn), the TGI in assay [1], in assay [2], in assay [3], in assay [4], in assay [5] and in [6] was above 100 µM in each case. For the same compound, the TGI in assay [7], in assay [8] and in assay [9] was above 100 µM each time.

For the compound `COC(=O)c1c(OC)cc2cc3c(c(O)c2c1C)C(=O)C1(O)C(=O)C=C(OC)C(OC(=O)CC(C)N)=C1C3=O` (stereo not drawn), the TGI in assay [2], in assay [3], in assay [4], in assay [5], in assay [6] and in assay [7] was above 100 µM throughout. Also, the TGI in assay [8] is 18 µM; in [9] it was 92.9 µM; in [10] it was above 100 µM.

As for `CC(C)CCCC(C)[C@H]1CC[C@H]2N=C(Nc3ccccc3)CCC[C@]12C` (stereo partly drawn), the TGI in [1] stood at 4.11 µM; in [2] it was 9.33 µM; in assay [3], 3.75 µM; in assay [4] it was 3.28 µM; in assay [5] it was 3.92 µM; in [6] it was 2.67 µM. The TGI came to 3.48 µM in [7], 3.99 µM in assay [8] and 3.66 µM in assay [9].

On to `CC1=C2NCN(C)N=C2C(C#N)(C#N)C1(C#N)C#N`, for which the TGI in [1] is above 100 µM; in assay [2], 31 µM; in assay [3], 46.6 µM; in assay [4], 64.4 µM; in assay [6] it was 19.9 µM; in assay [7] it was 34.9 µM. For the same compound, the TGI was above 87.9 µM in [8], above 58.2 µM in assay [9] and 33 µM in assay [10].

Consider `Cc1cn([C@H]2[C@@H](CO)C[C@H]2O)c(=O)[nH]c1=O`, for which the TGI in assay [2], in assay [3], in assay [4], in assay [5], in assay [6] and in [7] was above 100 µM each time. For the same compound, the TGI in [8], in assay [9] and in [10] was above 100 µM each time.

For the origin of these results see PubChem BioAssay (NCI).
